Assay results reported in PubChem BioAssay AID489010 (Southern Research Specialized Biocontainment Screening …, 2010).
Values joined by “and” are separate entries in the source; they are usually repeats but may differ in a detail not shown here. Equal values may be shown once. Active and inactive are the calls of the source. How the calls were made is not given here.

Tested on: not listed separately
Assay: M. tuberculosis H37Rv growth inhibition, dose response, strain H37Rv (AID 489010)
Details: M. tuberculosis H37Rv growth inhibition; at 100 µM (top of the series)
With COc1ccc(-c2[nH]nc3c2C(c2ccoc2)C(C#N)=C(N)O3)cc1 (stereo not given) the growth inhibition was -0.09% (inactive).
In the case of O=C(Cc1cc(=O)[nH][nH]1)N/N=C/c1cccc(Cl)c1Cl, the growth inhibition is reported as -0.74% (inactive) and -0.13% (inactive).
With N#CC1=C(N)Oc2n[nH]c(-c3ccccc3)c2C1c1cccc(OC(=O)N2CCOCC2)c1 (stereo not given) the growth inhibition was -2.13% (inactive).
With N#CC1=C(N)Oc2n[nH]c(-c3cccs3)c2C1c1ccccc1C(=O)O (stereo not given) the growth inhibition was 10.2% (inactive).
With Cc1ccc(SCc2[nH]nc3c2C2(CCSCC2)C(C#N)=C(N)O3)cc1 the growth inhibition was 6.38% (inactive).
With Cc1cc(-c2[nH]nc3c2C(c2ccsc2)C(C#N)=C(N)O3)c(C)s1 (stereo not given) the growth inhibition was 3.11% (inactive).
With COc1cccc(-c2[nH]nc3c2C(c2ccsc2)C(C#N)=C(N)O3)c1 (stereo not given) the growth inhibition was 5.86% (inactive).

Tested on: M. tuberculosis H37Rv growth inhibition
Assay: as above
Details: not given
In the case of CC(=O)N(Cc1ccc(F)cc1)C1=C(NCCc2ccccc2)C(=O)c2ccccc2C1=O, the IC90 is reported as 1.31 µM.
In the case of Cc1c(/C=N/Nc2nc3ccccc3[nH]2)c2ccccc2n1C, the IC90 is reported as 16.2 µM.
C(=N\Nc1nncc2ccccc12)/c1ccccn1 showed an IC90 of 19.8 µM.

Same assay, conditions: measured here: H37Rv growth IC50
COc1ccc(N(C(=O)CCl)C(C(=O)NCCc2ccccc2)c2cccs2)cc1 (stereo not given) showed an IC50 of 7.8 µM.
In the case of CC(NC(=O)COC(=O)c1cc(NS(=O)(=O)c2ccc(Cl)c([N+](=O)[O-])c2)ccc1O)C1CC2CCC1C2 (stereo not given), the IC50 is reported as 52.1 µM.
With Cc1oc2c(c1C(=O)NCc1cccnc1)C(=O)c1ccccc1C2=O the IC50 was < 0.2 µM.
Molecule Cc1oc2c(c1C(=O)N1CCOCC1)C(=O)c1ccccc1C2=O has an IC50 of 18 µM.
COc1ccc(C(=O)c2c(C(F)(F)F)oc3c2C(=O)c2ccccc2C3=O)cc1OC gave an IC50 of 9.48 µM.
Work on CSc1nnc(NC(=O)c2nc(S(=O)(=O)Cc3ccccc3F)ncc2Cl)s1 yielded an IC50 of 41.3 µM.
Cn1c(O)c(C2=NN(C(=O)CCl)C(c3ccccc3)C2)c(=O)n(C)c1=O (stereo not given) gave an IC50 of 82.7 µM.
For O=C(OCn1ncc(Cl)c(Cl)c1=O)c1cccc(C(F)(F)F)c1, the IC50 was 44.9 µM.
With Cc1ccc2c(c1)c1c3n2CCN(C(=O)CCl)C3CCC1 (stereo not given) the IC50 was 1.39 µM.
In the case of CC(C)c1nnc(NC(=O)c2nc(S(=O)(=O)Cc3ccc(F)cc3)ncc2Cl)s1, the IC50 is reported as 53.8 µM.
With Cc1sc2ncnc(Sc3nnnn3-c3ccccc3)c2c1C the IC50 was 40.5 µM.
For Cc1ccc(C(=O)OCn2ncc(Cl)c(Cl)c2=O)cc1, the IC50 was 42.3 µM.
In the case of O=C(CCl)Nc1cn(-c2ccccc2)nc1-c1ccc(F)cc1, the IC50 is reported as < 0.2 µM.
With O=C(NC1CCCCC1)C(c1cccnc1)N(C(=O)CCl)c1cccc(Cl)c1 (stereo not given) the IC50 was 15.5 µM.
In the case of Cc1ccc(C(=O)Oc2ccc([N+](=O)[O-])cc2)cc1S(=O)(=O)N1CCCCCC1, the IC50 is reported as 46.6 µM.
Molecule COc1cc(NCCCCCCCN)c2ncccc2c1 has an IC50 of 36.3 µM.
Work on Cn1nc(-c2ccc(Cl)cc2)nc2c(=O)n(C)c(=O)nc1-2 yielded an IC50 of 6.35 µM.
Cc1cc(C)cc(Cn2ncc(Cl)c(Cl)c2=O)c1 showed an IC50 of 11.7 µM.
With CC1=NNC(=O)C1Cc1c(Cl)cccc1Cl (stereo not given) the IC50 was 46.2 µM.
With COC(=O)c1sc(-c2ccc(C(C)(C)C)cc2)cc1NC(=O)/C=C/C(=O)O the IC50 was 19.1 µM.
O=C(CCl)N1c2ccccc2OCC1c1ccccc1 (stereo not given) showed an IC50 of 1.69 µM.
For CC(=O)n1cc(N(C(=O)CCl)c2ccccc2)c2ccccc21, the IC50 was 2.14 µM.
Work on COc1cc2c(cc1OC)-c1c(OC)c(OC)cc3c1C(C2)N(C)CC3 (stereo not given) yielded an IC50 of 25.8 µM.
In the case of O=C(OCn1ncc(Cl)c(Cl)c1=O)c1ccccc1Cl, the IC50 is reported as 22.1 µM.
For Fc1ccc(Oc2nc(-c3ccccc3)nnc2C(F)(F)F)cc1, the IC50 was > 100 µM.
CC(=O)n1cc(N(C(=O)CCl)c2ccc(C)cc2)c2ccccc21 showed an IC50 of 1.95 µM.
With Clc1ccc(-n2nnnc2Sc2ncnc3sccc23)cc1 the IC50 was 5.98 µM.
COC(=O)c1c(C)oc2ccc(N(C(=O)c3ccncc3)S(=O)(=O)c3ccc4ccccc4c3)cc12 gave an IC50 of 66.9 µM.
C/C(=N\NC(=O)c1ccncc1)c1cc2ccccc2oc1=O showed an IC50 of 0.29 µM.
In the case of CC(=O)N(Cc1ccc(F)cc1)C1=C(NCCc2ccccc2)C(=O)c2ccccc2C1=O, the IC50 is reported as 0.74 µM.
Molecule C=CCOc1ccccc1CN(C(=O)CCl)c1ccc2c(c1)OCO2 has an IC50 of 1.64 µM.
In the case of Cc1ccccc1-n1ncc2c([N+](=O)[O-])cc([N+](=O)[O-])cc21, the IC50 is reported as 1.01 µM.
For CCCCCCCCCCn1c2c(c(=N)c3c1CCC3)CCC2, the IC50 was 2.16 µM.
Molecule Cc1ccc(-n2nnc3c(SCC(=O)NCC4CCCO4)ncnc32)cc1 (stereo not given) has an IC50 of 46.4 µM.
O=C(NC(NC(=S)Nc1ccc(Cl)cc1Cl)C(Cl)(Cl)Cl)c1cccc([N+](=O)[O-])c1 (stereo not given) showed an IC50 of 9.33 µM.
Molecule COc1cccc(N(C(=O)CCl)C(C(=O)NCCc2ccccc2)c2cccs2)c1 (stereo not given) has an IC50 of 19.1 µM.
Work on Cc1c(/C=N/Nc2nc3ccccc3[nH]2)c2ccccc2n1C yielded an IC50 of 9.5 µM.
For Cc1cc(Br)c2c(c1)/C(=C/C(=O)c1cccs1)C(=O)N2, the IC50 was 11.7 µM.
COc1ccc2nc(C)cc(Sc3nc4ccccc4s3)c2c1 showed an IC50 of 42.3 µM.
Cc1ccc(Sc2ccc(NC(=O)CCl)cc2)c(C)c1 gave an IC50 of 17.7 µM.
Molecule CC(=O)n1cc(N(C(=O)CCl)c2ccc([N+](=O)[O-])cc2)c2ccccc21 has an IC50 of 3.24 µM.
For CCC(C)[C@@H](NC(=O)OC(C)(C)C)c1nnc(S(=O)(=O)Cc2cccc(C)c2)o1 (stereo not given in full), the IC50 was 31.9 µM.
With Cc1[nH]n(-c2ccccc2)c(=O)c1C(c1cccc([N+](=O)[O-])c1)c1c(C)[nH]n(-c2ccccc2)c1=O the IC50 was > 100 µM.
For C(=N\Nc1nncc2ccccc12)/c1ccccn1, the IC50 was 15.9 µM.
For CN(C1=C(NC(=O)c2ccccc2)C(=O)c2ccccc2C1=O)C1CCS(=O)(=O)C1 (stereo not given), the IC50 was 88.6 µM.
For CC(CCc1ccccc1)NC(=O)COC(=O)c1cc(NS(=O)(=O)c2ccc(Cl)c([N+](=O)[O-])c2)ccc1O (stereo not given), the IC50 was > 100 µM.
For Cc1cc(C)c(S(=O)(=O)/N=C2\C=C(Nc3ccc(C(=O)O)cc3)C(=O)c3ccccc32)c(C)c1, the IC50 was > 100 µM.
With Cc1ccc(C)c(Sc2ccc(NC(=O)CCl)cc2)c1 the IC50 was 22.5 µM.
Cc1ccc(N(C(=O)CCl)C(C(=O)NC2CCCCC2)c2cccnc2)cc1C (stereo not given) gave an IC50 of 20.5 µM.
With COC(=O)c1sc(-c2ccc(Cl)cc2)cc1NC(=O)/C=C/C(=O)O the IC50 was 41.8 µM.
Work on Cc1ccc(Sc2ccc(NC(=O)CCl)cc2)cc1C yielded an IC50 of 14.4 µM.
Cc1ccc(N(NC(=O)C(O)(c2ccccc2)c2ccccc2)C(=O)CCl)cc1 gave an IC50 of 12 µM.
Molecule Cc1nn(-c2ccccc2)c(Cl)c1CN(C(=O)CCl)c1cccc2ccccc12 has an IC50 of 21.7 µM.
For CCN(CC)CCNC(=O)c1ccc2c(c1NCCO)C(=O)c1ccccc1C2=O, the IC50 was > 100 µM.
Molecule CC(C)(C)c1csc(Sc2ccc([N+](=O)[O-])cn2)n1 has an IC50 of 51 µM.
In the case of CCn1nc(/C=C/c2ccccc2)nc2c(=O)n(C)c(=O)nc1-2, the IC50 is reported as 6.39 µM.
In the case of O=C(CCl)N(c1ccc(Cl)cc1)c1c[nH]c2ccccc12, the IC50 is reported as 1.91 µM.
CN(C1=C(NC(=O)c2ccc(Cl)cc2)C(=O)c2ccccc2C1=O)c1ccccc1 gave an IC50 of 9.43 µM.
In the case of Cn1nc(-c2ccccn2)nc2c(=O)n(C)c(=O)nc1-2, the IC50 is reported as 10.1 µM.
Work on Cc1cccc(Cn2nnc3c2C(=O)c2ccccc2C3=O)c1 yielded an IC50 of 13.7 µM.
Molecule Cc1nn(-c2ccccc2)c(Cl)c1CN(C(=O)CCl)c1ccc(Cl)cc1 has an IC50 of 1.53 µM.
In the case of O=C(N/N=C/c1c(O)n(C2CCCCC2)c(=S)[nH]c1=O)c1ccccc1O, the IC50 is reported as > 100 µM.
Molecule COc1cc2c(cc1OC)C(c1cc(Br)ccc1F)N(C(=O)CCl)CC2 (stereo not given) has an IC50 of 5.91 µM.
Work on Cc1[nH]n(-c2ccccc2)c(=O)c1C(C[N+](=O)[O-])c1ccc(F)cc1 (stereo not given) yielded an IC50 of 19.6 µM.
Molecule Cc1ccc(CS(=O)(=O)c2ncc(Cl)c(C(=O)Nc3nnc(C(C)C)s3)n2)cc1 has an IC50 of 53.5 µM.
CSc1nnc(NC(=O)c2nc(S(=O)(=O)Cc3cccc(C)c3)ncc2Cl)s1 showed an IC50 of 23.8 µM.
O=C(Cc1ccccc1)c1c[nH]c(C(=O)C(Cl)(Cl)Cl)c1 showed an IC50 of 93.8 µM.
In the case of Cc1nc2c(=O)n(C)c(=O)nc-2n(C)n1, the IC50 is reported as 1.9 µM.
For O=C(NC1=C(NC2CCS(=O)(=O)C2)C(=O)c2ccccc2C1=O)c1ccccc1 (stereo not given), the IC50 was 50.7 µM.
CC(C)(C)C1CCc2sc(C(=O)NNC(=O)CCl)cc2C1 (stereo not given) showed an IC50 of 6.29 µM.
